These results are taken from patent publication US11453697B1, “Cyclic di-nucleotide compounds as sting agonists” (Merck Sharp & Dohme Corp., priority 2015, dated 2022).

The first assay concerns IFN-β secretion in THP1 cells. Put plainly: IFN-β secretion in THP1 cell culture (5 h). The class given is cell-based, human.
Details: not given
Here is the method:
The ability of compounds to stimulate the secretion of interferon-beta from THP1 cells was measured using a human IFN-β AlphaLISA kit (Perkin Elmer, Cat. No. AL265F). The basic protocol is as follows:
The cell viability and count was ascertained using a Beckman Coulter V-Cell XR cell counter. The cells suspension was centrifuged at 200×g for 5 min at RT. […] Subsequent liquid transfers were performed using either a Matrix electronic multichannel pipette or an Agilent Bravo Automated Liquid Handling Platform.
The assay was started by dispensing 40 μL of the previously prepared cell suspension into the wells of the plate containing compounds. After 5 h incubation at 37° C., 5% CO2 in a humidified atmosphere, the plate of cells and compounds was centrifuged at 200×g for 5 min at RT. […] To these supernatant-containing wells was added 10 μL of 5× Anti-Analyte Acceptor beads (50 μg/mL of AlphaLISA HiBlock Buffer) and incubated for 30 min at RT while shaking on an orbital plate shaker. To each well was added 10 μL of 5× Biotinylated Antibody Anti-analyte (5 nM in AlphaLISA HiBlock Buffer) and incubated on an orbital plate shaker for 60 min at RT or overnight at 4° C. To each well was added 25 μL of 2× SA-Donor beads (80 μg/mL in AlphaLISA HiBlock Buffer) and incubated for 30-45 min at RT in the dark while shaking on an orbital plate shaker. The plate was then read on a Perkin Elmer Envision (λex=680 nm, λem=[…]). The percent effect of the AlphaLISA signal at each compound concentration was calculated based on 30 uM cGAMP positive controls and 0.3% DMSO negative controls. The plot of percent effect versus the log of compound concentration was fit with a 4-parameter concentration response equation to calculate EC50 values.
Compounds of the disclosure were evaluated for IFN-β secretion in THP1 cell culture as described above.
On to `Nc1nc2c(ncn2[C@@H]2O[C@@H]3COP(=O)(O)OC4[C@@H](COP(=O)(O)O[C@H]2C3F)O[C@@H](n2cnc3c(N)ncnc32)[C@H]4F)c(=O)[nH]1` (stereo partly drawn) [Example 26, 2-amino-9-[(2S,5R,7R,8S,10S,12aR,14R,15S,15aR,16R)-14-(6-amino-9H-purin-9-yl)-15,16-difluoro-2,10-dihydroxy-2,10-dioxidooctahydro-12H-5,8-methanofuro[3,2-l][1,3,6,9,11,2,10]pentaoxadiphosphacyclotetradecin-7-yl]-1,9-dihydro-6H-purin-6-one], for which the “% Effect at 30 μM relative to 2′3′-cGAMP” value is 150%.

On to `Nc1nc2c(ncn2[C@@H]2O[C@@H]3COP(=O)(O)O[C@H]4C[C@H](n5cnc6c(N)ncnc65)O[C@@H]4COP(=O)(O)O[C@@H]2C3)c(=O)[nH]1` [Example 27, 2-amino-9-[(5S,7R,8R,12aR,14R,15aS)-14-(6-amino-9H-purin-9-yl)-2,10-dihydroxy-2,10-dioxidooctahydro-12H-5,8-methanofuro[3,2-l][1,3,6,9,11,2,10]pentaoxadiphosphacyclotetradecin-7-yl]-1,9-dihydro-6H-purin-6-one], for which the “% Effect at 30 μM relative to 2′3′-cGAMP” value came out at 164%.

For the compound `Nc1nc2c(ncn2[C@@H]2O[C@@H]3COP(=O)(O)OC4[C@@H](COP(=O)(O)OC2C3O)O[C@@H](n2cnc3c(N)ncnc32)[C@H]4F)c(=O)[nH]1` (stereo in doubt) [Example 7, (5R,7R,8R,12aR,14R,15S,15aR,16R)-7-(2-amino-6-oxo-1,6-dihydro-9H-purin-9-yl)-14-(6-amino-9H-purin-9-yl)-15-fluoro-16-hydroxyoctahydro-12H-5,8-methanofuro[3,2-l][1,3,6,9,11,2,10] pentaoxadiphosphacyclotetradecine-2,10-diolate 2,10-dioxide], the “% Effect at 30 μM relative to 2′3′-cGAMP” value stood at 112%.

As for `Nc1nc2c(ncn2[C@@H]2O[C@@H]3COP(=O)(O)O[C@H]4[C@@H](O)[C@H](n5cnc6c(N)ncnc65)O[C@@H]4COP(=O)(O)O[C@@H]2[C@H]3O)c(=O)[nH]1` [Example 39, 2-amino-9-[(5R,7R,8R,12aR,14R,15R,15aS,16S)-14-(6-amino-9H-purin-9-yl)-2,10,15,16-tetrahydroxy-2,10-dioxidooctahydro-12H-5,8-methanofuro[3,2-l][1,3,6,9,11,2,10]pentaoxadiphosphacyclotetradecin-7-yl]-1,9-dihydro-6H-purin-6-one], the “% Effect at 30 μM relative to 2′3′-cGAMP” value worked out at 74%.

Take `Nc1nc2c(ncn2[C@@H]2O[C@@H]3COP(=O)(O)O[C@H]4[C@H](O)[C@H](n5cnc6c(N)ncnc65)O[C@@H]4COP(=O)(O)O[C@@H]2[C@@H]3O)c(=O)[nH]1` [Example 48, 2-amino-9-[(5R,7R,8R,12aR,14R,15S,15aS,16R)-14-(6-amino-9H-purin-9-yl)-2,10,15,16-tetrahydroxy-2,10-dioxidooctahydro-12H-5,8-methanofuro[3,2-l][1,3,6,9,11,2,10]pentaoxadiphosphacyclotetradecin-7-yl]-1,9-dihydro-6H-purin-6-one]: the “% Effect at 30 μM relative to 2′3′-cGAMP” value was found to be 104%.

Still in this assay, the particulars now being: IFN-β secretion in THP1 cell culture, 5 h; compound at 30 μM; percent activation relative to 2′3′-cGAMP.
`Nc1nc2c(ncn2[C@@H]2O[C@@H]3COP(=O)(S)OC4[C@@H](COP(=O)(S)O[C@H]2C3)O[C@@H](n2nnc3c(N)ncnc32)[C@H]4F)c(=O)[nH]1` (stereo partly drawn) [Example 133, 2-amino-9-[(5S,7R,8R,12aR,14R,15S,15aR)-14-(7-amino-3H-[1,2,3]triazolo[4,5-d]pyrimidin-3-yl)-15-fluoro-2,10-dihydroxy-2,10-disulfidooctahydro-12H-5,8-methanofuro[3,2-l][1,3,6,9,11,2,10]pentaoxadiphosphacyclotetra-decin-7-yl]-1,9-dihydro-6H-purin-6-one]: the “% Effect at 30 μM relative to 2′3′-cGAMP” value was found to be 117%.

Turning to `Nc1nc2c(ncn2[C@@H]2O[C@@H]3COP(=O)(S)O[C@H]4[C@@H](O)[C@H](n5ccc6c(N)ncnc65)O[C@@H]4COP(=O)(S)O[C@@H]2C3)c(=O)[nH]1` (stereo partly drawn) [Example 78, 2-amino-9-[(5S,7R,8R,12aR,14R,15R,15aS)-14-(4-amino-7H-pyrrolo[2,3-d]pyrimidin-7-yl)-15-hydroxy-2,10-dioxido-2,10-disulfanyloctahydro-12H-5,8-methanofuro[3,2-l][1,3,6,9,11,2,10]pentaoxadiphosphacyclotetradecin-7-yl]-1,9-dihydro-6H-purin-6-one], the “% Effect at 30 μM relative to 2′3′-cGAMP” value is 162%.

`Nc1nc2c(ncn2[C@@H]2O[C@@H]3COP(=O)(S)O[C@H]4[C@@H](O)[C@H](n5ccc6c(N)ncnc65)O[C@@H]4COP(=O)(S)O[C@@H]2C3)c(=O)[nH]1` (stereo partly drawn) [Example 80, 2-amino-9-[(5S,7R,8R,12aR,14R,15R,15aS)-14-(4-amino-7H-pyrrolo[2,3-d]pyrimidin-7-yl)-15-hydroxy-2,10-dioxido-2,10-disulfanyloctahydro-12H-5,8-methanofuro[3,2-l][1,3,6,9,11,2,10]pentaoxadiphosphacyclotetradecin-7-yl]-1,9-dihydro-6H-purin-6-one]: the “% Effect at 30 μM relative to 2′3′-cGAMP” value is listed as 234%.

`Nc1nc2c(ncn2[C@@H]2O[C@@H]3COP(O)(=S)O[C@H]4[C@H](F)[C@H](n5cnc6c(N)ncnc65)O[C@@H]4COP(O)(=S)O[C@@H]2[C@@H]3F)c(=O)[nH]1` (single isomer, unassigned) [Example 245]: the “% Effect at 30 μM relative to 2′3′-cGAMP” value was 234%.

For `Nc1nc2c(ncn2[C@@H]2O[C@@H]3COP(=O)(S)OC4C(O)[C@H](n5cnc6c(N)ncnc65)O[C@@H]4COP(=O)(S)OC2C3)c(=O)[nH]1` (single isomer, unassigned) [Example 87], the “% Effect at 30 μM relative to 2′3′-cGAMP” value came out at 99%.

`Nc1nc2c(ncn2[C@@H]2O[C@@H]3COP(=O)(S)OC4C5OC[C@]4(COP(=O)(S)OC2C3O)O[C@H]5n2cnc3c(N)ncnc32)c(=O)[nH]1` (single isomer, unassigned) [Example 95]: the “% Effect at 30 μM relative to 2′3′-cGAMP” value worked out at 118%.

Turning to `Nc1nc2c(ncn2[C@@H]2O[C@@H]3COP(=O)(S)O[C@H]4[C@H](F)[C@H](n5cnc6c(N)ncnc65)O[C@@H]4COP(=O)(S)O[C@@H]2[C@H]3F)c(=O)[nH]1` (single isomer, unassigned) [Example 146], the “% Effect at 30 μM relative to 2′3′-cGAMP” value was determined as 59%.

Regarding `Nc1nc2c(ncn2[C@@H]2S[C@@H]3COP(=O)(O)O[C@H]4[C@H](F)[C@H](n5cnc6c(=O)[nH]cnc65)O[C@@H]4COP(=O)(S)O[C@@H]2[C@@H]3O)c(=O)[nH]1` (stereo partly drawn) [Example 339, 2-amino-9-[(5R,7R,8R,12aR,14R,15S,15aR,16S)-15-fluoro-2,16-dihydroxy-2,10-dioxido-14-(6-oxo-1,6-dihydro-9H-purin-9-yl)-10-sulfanyloctahydro-12H-5,8-methanofuro[3,2-l][1,3,9,11,6,2,10]tetraoxathiadiphosphacyclotetradecin-7-yl]-1,9-dihydro-6H-purin-6-one], the “% Effect at 30 μM relative to 2′3′-cGAMP” value came to 175%.

For the compound `Nc1nc2c(ncn2[C@@H]2O[C@@H]3COP(=O)(S)OC4C(O)[C@H](n5cnc6c(N)ncnc65)O[C@@H]4COP(=O)(S)OC2C3)c(=O)[nH]1` (single isomer, unassigned) [Example 88], the “% Effect at 30 μM relative to 2′3′-cGAMP” value stood at 54%.

Take `Nc1nc2c(ncn2[C@@H]2O[C@@H]3COP(O)(=S)O[C@H]4[C@H](F)[C@H](n5cnc6c(N)ncnc65)O[C@@H]4COP(O)(=S)O[C@@H]2[C@@H]3F)c(=O)[nH]1` (single isomer, unassigned) [Example 244]: the “% Effect at 30 μM relative to 2′3′-cGAMP” value was found to be 96%.

Take `Nc1nc2c(nnn2[C@@H]2O[C@@H]3COP(=O)(S)O[C@H]4[C@H](F)[C@H](n5cnc6c(=O)[nH]cnc65)O[C@@H]4COP(=O)(S)O[C@@H]2[C@@H]3F)c(=O)[nH]1` (single isomer, unassigned) [Example 342]: the “% Effect at 30 μM relative to 2′3′-cGAMP” value was 23%.

Regarding `Nc1nc2c(nnn2[C@@H]2O[C@@H]3COP(=O)(S)O[C@H]4[C@H](F)[C@H](n5nnc6c(=O)[nH]cnc65)O[C@@H]4COP(=O)(S)O[C@@H]2C3)c(=O)[nH]1` (single isomer, unassigned) [Example 340], the “% Effect at 30 μM relative to 2′3′-cGAMP” value amounted to 306%.

In the case of `Nc1nc2c(nnn2[C@@H]2O[C@@H]3COP(=O)(S)O[C@H]4[C@H](F)[C@H](n5cnc6c(=O)[nH]cnc65)O[C@@H]4COP(=O)(S)O[C@@H]2[C@H]3F)c(=O)[nH]1` (stereo partly drawn) [Example 348, 5-amino-3-[(5R,7R,8S,12aR,14R,15S,15aR,16S)-15,16-difluoro-2,10-dioxido-14-(6-oxo-1,6-dihydro-9H-purin-9-yl)-2,10-disulfanyloctahydro-12H-5,8-methanofuro[3,2-l][1,3,6,9,11,2,10]pentaoxadiphosphacyclotetradecin-7-yl]-3,6-dihydro-7H-[1,2,3]triazolo[4,5-d]pyrimidin-7-one], the “% Effect at 30 μM relative to 2′3′-cGAMP” value came out at 8%.

Turning to `Nc1nc2c(ncn2[C@@H]2O[C@@H]3CO[P@@](=O)(S)O[C@H]4[C@H](F)[C@H](n5cnc6c(N)ncnc65)O[C@@H]4CO[P@@](=O)(S)O[C@@H]2[C@H]3F)c(=O)[nH]1` (single isomer, unassigned) [Example 144], the “% Effect at 30 μM relative to 2′3′-cGAMP” value is given as 114%.
